Reference: ChEMBL document CHEMBL1201862, “PubChem BioAssay data set” (2004)
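These data come from cells grown in 96-well plates and exposed to compound for 48 hours at five concentrations. Abbreviation: GI50, concentration required for 50% inhibition of growth.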 Activity calls are given as the source filed them. Cut-off read from the data, not from the text of the source: active = GI50 up to about 1.1 µM and inactive = higher. Square brackets hold non-standard residues; d marks the D form. Peptide text beside a SMILES is read from it. pGlu = O=C1CC[C@@H](C(=O)O)N1; Thz = O=C(O)[C@@H]1CSCN1

Key:
Experiment in all cases: growth of human tumour cells (NCI), 48 h
786-0 = system: 786-0
A498 = system: A498
HCT-15 = system: HCT-15
HL-60 = system: HL-60
HOP-62 = system: HOP-62
LOX IMVI = system: LOX IMVI
Malme-3M = system: Malme-3M
NCI-H23 = system: NCI-H23
NCI-H522 = system: NCI-H522
OVCAR-3 = system: OVCAR-3
OVCAR-5 = system: OVCAR-5
RPMI-8226 = system: RPMI-8226
SF-268 = system: SF-268
SNB-19 = system: SNB-19
UO-31 = system: UO-31
XF498 = system: XF498
BT-549 = system: BT-549
MCF7 = system: MCF7
MDA-N = system: MDA-N
RXF 393 = system: RXF 393

Row | SMILES | GI50 (786-0) | GI50 (A498) | GI50 (HCT-15) [µM] | GI50 (HL-60) | GI50 (HOP-62) | GI50 (LOX IMVI) | GI50 (Malme-3M) | GI50 (NCI-H23) | GI50 (NCI-H522) | GI50 (OVCAR-3) | GI50 (OVCAR-5) | GI50 (RPMI-8226) | GI50 (SF-268) | GI50 (SNB-19) | GI50 (UO-31) | GI50 (XF498) | GI50 (BT-549) | GI50 (MCF7) | GI50 (MDA-N) | GI50 (RXF 393)
1 | C=CCc1cc2cccc(OC)c2oc1=O | > 100 µM (inactive) | > 100 µM (inactive) | > 100 | 34.8 µM (inactive) | > 100 µM (inactive) | 93.3 µM (inactive) | > 100 µM (inactive) | > 100 µM (inactive) | 6.9 µM (inactive) | > 100 µM (inactive) | 66.1 µM (inactive) | > 100 µM (inactive) | > 100 µM (inactive) | > 100 µM (inactive) | 1.19 µM (inactive) | 7.24 µM (inactive) |  |  |  | 
2 | COC(=O)/N=C(\NC(=O)OC)Nc1ccc(Oc2ccccc2)cc1NC=O | 0.483 µM (active) | 0.294 µM (active) |  | 0.206 µM (active) | 0.912 µM (active) | 1.97 µM (inactive) | 0.579 µM (active) | 0.824 µM (active) | 0.253 µM (active) | 0.327 µM (active) | > 100 µM (inactive) | 2.55 µM (inactive) | 0.673 µM (active) | > 100 µM (inactive) | 0.871 µM (active) | 0.369 µM (active) |  |  |  | 
3 | CN1C[C@@H]2CC(=O)CC[C@@H]2C[C@H]1C#N | > 100 µM (inactive) | > 100 µM (inactive) | > 100 | > 100 µM (inactive) | > 100 µM (inactive) | > 100 µM (inactive) | > 100 µM (inactive) |  | > 100 µM (inactive) | > 100 µM (inactive) | > 100 µM (inactive) | > 100 µM (inactive) | > 100 µM (inactive) | > 100 µM (inactive) | > 100 µM (inactive) | > 100 µM (inactive) |  |  |  | 
4 | O=C1CC[C@@H](C(=O)N2CSC[C@H]2C(=O)O)N1 [PIDOTIMOD] ([pGlu]-[Thz]-OH) | > 100 µM (inactive) | > 100 µM (inactive) | > 100 | > 100 µM (inactive) | > 100 µM (inactive) | > 100 µM (inactive) | > 100 µM (inactive) | > 100 µM (inactive) | > 100 µM (inactive) | > 100 µM (inactive) | > 100 µM (inactive) | > 100 µM (inactive) | > 100 µM (inactive) | > 100 µM (inactive) | > 100 µM (inactive) |  | > 100 µM (inactive) | > 100 µM (inactive) | > 100 µM (inactive) | > 100 µM (inactive)
5 | CN(C)c1ccc2nc3c(C(=O)O)cc(O)c(O)c3[o+]c2c1 | 29.1 µM (inactive) | > 100 µM (inactive) | 37.5 | 22.3 µM (inactive) | 52.8 µM (inactive) | 33.1 µM (inactive) | 6.49 µM (inactive) | 16.8 µM (inactive) | 5.48 µM (inactive) | 13.3 µM (inactive) | 65.3 µM (inactive) | 18.8 µM (inactive) | 41.5 µM (inactive) | 28.7 µM (inactive) | 28.6 µM (inactive) |  | 20.9 µM (inactive) | 21.1 µM (inactive) | 23.1 µM (inactive) | 24.6 µM (inactive)
6 | Clc1cc(OCC23CC4CC(CC(C4)C2)C3)nc(OCC23CC4CC(CC(C4)C2)C3)n1 | > 100 µM (inactive) | > 100 µM (inactive) | > 100 | > 100 µM (inactive) | > 100 µM (inactive) | > 100 µM (inactive) | > 100 µM (inactive) | > 100 µM (inactive) | > 100 µM (inactive) | > 100 µM (inactive) | > 100 µM (inactive) | > 100 µM (inactive) | > 100 µM (inactive) | > 100 µM (inactive) | > 100 µM (inactive) |  | > 100 µM (inactive) | > 100 µM (inactive) | > 100 µM (inactive) | > 100 µM (inactive)
7 | NC(=O)COC(=O)c1c(Cl)nc2sccn12 | 19.1 µM (inactive) | > 100 µM (inactive) | > 40.3 | > 46 µM (inactive) | > 100 µM (inactive) | > 75.5 µM (inactive) | > 100 µM (inactive) | > 100 µM (inactive) | > 100 µM (inactive) | > 43.7 µM (inactive) | > 100 µM (inactive) | > 37 µM (inactive) | > 100 µM (inactive) | > 100 µM (inactive) | > 100 µM (inactive) | > 100 µM (inactive) |  |  |  | 
8 | COc1ccc2c(c1)/C(=C\c1c(Cl)nc3sc(C)cn13)C(=O)N2 | 4.22 µM (inactive) | 3.7 µM (inactive) | 2.62 | 1.34 µM (inactive) | 6.4 µM (inactive) | 4.22 µM (inactive) | 2.37 µM (inactive) | 4.12 µM (inactive) | 3.05 µM (inactive) | 2.41 µM (inactive) | 9.59 µM (inactive) | 2.61 µM (inactive) | 4.31 µM (inactive) | 3.84 µM (inactive) | 5.45 µM (inactive) |  | 5.21 µM (inactive) | 3.52 µM (inactive) | 0.418 µM (active) | 8.22 µM (inactive)
9 | CSc1nc(SC)c2c(C)cn(C3OC(C)C(O)C(O)C3O)c2n1 (stereo not drawn) | > 100 µM (inactive) | 27.9 µM (inactive) | 74.1 | 46.2 µM (inactive) | > 100 µM (inactive) | 31.8 µM (inactive) | > 100 µM (inactive) | 94 µM (inactive) | 96.2 µM (inactive) | 48.8 µM (inactive) | > 100 µM (inactive) | 42.4 µM (inactive) | 95.7 µM (inactive) | 57 µM (inactive) | 36.3 µM (inactive) |  | 39.2 µM (inactive) | 58.9 µM (inactive) | 67.6 µM (inactive) | > 100 µM (inactive)
10 | CCOC(=O)C1=C(NC(C)(C)C)OCC1=O | > 100 µM (inactive) |  | > 100 | > 100 µM (inactive) | > 100 µM (inactive) | > 100 µM (inactive) | > 100 µM (inactive) | 92.7 µM (inactive) | > 100 µM (inactive) | > 100 µM (inactive) | > 100 µM (inactive) | > 100 µM (inactive) | > 100 µM (inactive) | > 100 µM (inactive) | > 100 µM (inactive) | > 100 µM (inactive) |  |  |  | 
11 | CC(C)(Oc1ccc(C(=O)c2ccc(Cl)cc2)cc1Cl)C(=O)N1CCN(c2ccccc2)CC1 | > 100 µM (inactive) | > 100 µM (inactive) | > 100 | 60.8 µM (inactive) | > 100 µM (inactive) | > 100 µM (inactive) | > 100 µM (inactive) | 37.2 µM (inactive) | 59 µM (inactive) | > 100 µM (inactive) | > 100 µM (inactive) | > 100 µM (inactive) | > 100 µM (inactive) | > 100 µM (inactive) | 46.9 µM (inactive) | 52.1 µM (inactive) |  |  |  | 
12 | CC(=O)NNc1nc(C)c(C(/C=C/c2ccc([N+](=O)[O-])cc2)=N/N)s1 | > 100 µM (inactive) | 70.5 µM (inactive) | > 100 | 21 µM (inactive) | 68.1 µM (inactive) | 86.9 µM (inactive) | > 100 µM (inactive) | > 100 µM (inactive) | > 100 µM (inactive) | > 100 µM (inactive) | > 100 µM (inactive) | 30.9 µM (inactive) | > 100 µM (inactive) | > 100 µM (inactive) | > 100 µM (inactive) |  | > 100 µM (inactive) | > 100 µM (inactive) | > 100 µM (inactive) | 55.3 µM (inactive)
13 | O=C(CCCl)NN=C1NCCN1 | > 100 µM (inactive) | > 100 µM (inactive) | > 100 | > 100 µM (inactive) | > 100 µM (inactive) | > 100 µM (inactive) | > 100 µM (inactive) | > 100 µM (inactive) | > 100 µM (inactive) | > 100 µM (inactive) | > 100 µM (inactive) | > 100 µM (inactive) | > 100 µM (inactive) | > 100 µM (inactive) | > 100 µM (inactive) |  | > 100 µM (inactive) | > 100 µM (inactive) | > 100 µM (inactive) | > 100 µM (inactive)
14 | O=C1/C(=C\c2ccc([N+](=O)[O-])o2)SC2NC(COc3ccc(Cl)cc3)=NN12 (stereo not drawn) | 3.4 µM (inactive) | 23.7 µM (inactive) | 2.07 | 2.16 µM (inactive) | 22.5 µM (inactive) | 2.93 µM (inactive) | 2.4 µM (inactive) | 10 µM (inactive) | 2.22 µM (inactive) | 6.27 µM (inactive) | 21.2 µM (inactive) | 3.21 µM (inactive) | 3.48 µM (inactive) | 16.7 µM (inactive) | 4.62 µM (inactive) |  | 9.84 µM (inactive) | 2.12 µM (inactive) | 3.48 µM (inactive) | 17.6 µM (inactive)
15 | C[C@]12OC(=O)[C@]3(O)CC[C@H]4[C@@H](C[C@@H](O)[C@@]5(Cl)CC=CC(=O)[C@]45C)[C@]45OCC6C(=O)O[C@@H]1C[C@@]6(C)[C@H](C4=O)[C@@]32O5 (stereo partly drawn) | 0.617 µM (active) | 1.37 µM (inactive) | 1.46 | 0.356 µM (active) | 2.78 µM (inactive) | 0.951 µM (active) | 1.3 µM (inactive) | 0.542 µM (active) | 0.16 µM (active) | 1.5 µM (inactive) | 1.4 µM (inactive) | 0.596 µM (active) | 0.767 µM (active) | 5.73 µM (inactive) | 1.23 µM (inactive) |  | 0.586 µM (active) | 0.774 µM (active) | 1.16 µM (inactive) | 0.283 µM (active)
16 | COc1ccc(Br)c(N/N=C2\CCCNC2=O)c1 | > 100 µM (inactive) |  | > 100 | 68.5 µM (inactive) | > 100 µM (inactive) | > 100 µM (inactive) | > 100 µM (inactive) | > 100 µM (inactive) | 58.5 µM (inactive) | > 100 µM (inactive) | 44.6 µM (inactive) | 51.5 µM (inactive) |  | > 100 µM (inactive) | 32.1 µM (inactive) | 69.2 µM (inactive) |  |  |  | 
